Numbers after ± are expanded uncertainties.

The conditions of data set [1]: 298.15 K; 101.33 kPa; Liquid.
Data set [2] in a line: refractive index (Na D-line) (dimensionless). The conditions noted are these: 293.15 K; 101.33 kPa; Liquid; Standard Abbe refractometry.

As to `Cc1ccccc1C` [1,2-dimethylbenzene], the mass density in data set [1] amounted to 875.73 ± 0.44 kg/m3. For the same compound, the refractive index in data set [2] is listed as 1.5057 ± 0.0007.

Turning to `Cc1cccc(C)c1` [1,3-dimethylbenzene], the mass density in data set [1] is recorded as 859.83 ± 0.99 kg/m3. The refractive index in data set [2] came out at 1.4973 ± 0.0008.

`Cc1ccc(C)cc1` [1,4-dimethylbenzene]: the mass density in data set [1] was determined as 856.58 ± 0.63 kg/m3. Besides, the refractive index in data set [2] is on record as 1.49577 ± 0.00075.

With `C[S+](C)[O-]` [dimethyl sulfoxide], the mass density in data set [1] stood at 1095.62 ± 0.39 kg/m3. For the same compound, the refractive index in data set [2] was 1.4785 ± 0.0007.

For orientation: mass density means the mass of a sample divided by its volume. As a reminder, the refractive index is the speed of light in vacuum divided by its phase velocity in the sample.

Values taken from the NIST ThermoML archive (doi:10.1016/j.jct.2004.04.004).
